From patent US12077503B2, “Substituted cyclic amides and their use as herbicides” (FMC CORPORATION, priority 2015, dated 2024)

Columns and labels:
Format in all cases: in vivo
[1] = tested on: blackgrass (Alopecurus myosuroides); assay: Test A postemergence
How it was run: (§1)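 Preemergence soil spray on seeded pots or post-emergence spray on 1–2 leaf plants, in loam–sand blend. Greenhouse ~10 d. Visual rating 0–100 against untreated plants.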

[2] = tested on: ryegrass, Italian (Italian ryegrass, Lolium multiflorum); assay: Test A postemergence
How it was run: as §1

[3] = tested on: Galium (catchweed bedstraw, Galium aparine); assay: Test A postemergence
How it was run: as §1

[4] = tested on: barnyardgrass (Echinochloa crus-galli); assay: Test A postemergence
How it was run: as §1

[5] = tested on: corn (Zea mays); assay: Test A postemergence
How it was run: as §1

[6] = tested on: Kochia (Kochia scoparia); assay: Test A postemergence
How it was run: as §1

[7] = tested on: pigweed (Amaranthus retroflexus); assay: Test A postemergence
How it was run: as §1

[8] = tested on: ragweed (common ragweed, Ambrosia elatior); assay: Test A postemergence
How it was run: as §1

[9] = tested on: giant foxtail (Setaria faberii); assay: Test A postemergence
How it was run: as §1

[10] = tested on: wheat (Triticum aestivum); assay: Test A postemergence
How it was run: as §1

[11] = tested on: ryegrass, Italian (Italian ryegrass, Lolium multiflorum); assay: Test A preemergence; details: for Plant response rating, Ryegrass, Italian: 125 g ai/ha, preemergence, 0 to 100 scale (0 no effect, 100 complete control); for Ryegrass, Italian plant response rating (0 to 100 scale): 0 is no effect, 100 is complete control
How it was run: as §1

[12] = tested on: barnyardgrass (Echinochloa crus-galli); assay: Test A preemergence; details: for Plant response rating, Barnyardgrass: 125 g ai/ha, preemergence, 0 to 100 scale (0 no effect, 100 complete control); for Barnyardgrass plant response rating (0 to 100 scale): 0 is no effect, 100 is complete control
How it was run: as §1

[13] = tested on: Kochia (Kochia scoparia); assay: Test A preemergence; details: for Plant response rating, Kochia: 125 g ai/ha, preemergence, 0 to 100 scale (0 no effect, 100 complete control); for Kochia plant response rating (0 to 100 scale): 0 is no effect, 100 is complete control
How it was run: as §1

[14] = tested on: pigweed (Amaranthus retroflexus); assay: Test A preemergence; details: for Plant response rating, Pigweed: 125 g ai/ha, preemergence, 0 to 100 scale (0 no effect, 100 complete control); for Pigweed plant response rating (0 to 100 scale): 0 is no effect, 100 is complete control
[15] = tested on: ragweed (common ragweed, Ambrosia elatior); assay: Test A preemergence; details: for Plant response rating, Ragweed: 125 g ai/ha, preemergence, 0 to 100 scale (0 no effect, 100 complete control); for Ragweed plant response rating (0 to 100 scale): 0 is no effect, 100 is complete control
How it was run: as §1

[16] = tested on: giant foxtail (Setaria faberii); assay: Test A preemergence; details: for Plant response rating, Foxtail, Giant: 125 g ai/ha, preemergence, 0 to 100 scale (0 no effect, 100 complete control); for Foxtail, Giant plant response rating (0 to 100 scale): 0 is no effect, 100 is complete control
How it was run: as §1

[17] = tested on: rice (Oryra sativa); assay: Test B flooded paddy test; details: Flood, 0 to 100 scale where 0 is no effect and 100 is complete control, 13 to 15 d
How it was run: (§2)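 Visual ratings (0 none to 100 complete control) are relative to untreated plants, taken 13–15 d after treatment in a greenhouse. Test material went straight into floodwater standing 3 cm above the soil, kept constant, on plants at the 2-leaf stage.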

[18] = tested on: barnyardgrass (Echinochloa crus-galli); assay: Test B flooded paddy test; details: Flood, 0 to 100 scale where 0 is no effect and 100 is complete control, 13 to 15 d
How it was run: as §2

[19] = tested on: ducksalad (Heteranthera limosa); assay: Test B flooded paddy test; details: Flood, 0 to 100 scale where 0 is no effect and 100 is complete control, 13 to 15 d
How it was run: as §2

[20] = tested on: sedge, umbrella (small-flower umbrella sedge, Cyperus difformis); assay: Test B flooded paddy test; details: Flood, 0 to 100 scale where 0 is no effect and 100 is complete control, 13 to 15 d
How it was run: as §2

[21] = 500 g ai/ha, postemergence, 0 to 100 scale, 0 no effect, 100 complete control
[22] = Postemergence, 125 g ai/ha, visual injury, 0 to 100 scale (0 no effect, 100 complete control), approx. 10 d
[23] = 125 g ai/ha, postemergence, visual injury rating on 0 to 100 scale (0 no effect, 100 complete control), approx. 10 d
[24] = Preemergence, 500 g ai/ha, visual injury approx. 10 d

Row | Structure (SMILES) | Plant response rating, Blackgrass [1, 21] | Plant response rating, Blackgrass [1, 22] | Plant response rating, Ryegrass, Italian [2, 21] | Plant response rating, Ryegrass, Italian [2, 22] | Plant response rating, Galium [3, 21] | Plant response rating, Galium [3, 22] | Plant response rating, Barnyardgrass [4, 21] | Plant response rating, Barnyardgrass [4, 22] | Plant response rating, Corn [5, 21] | Plant response rating, Kochia [6, 21] | Plant response rating, Pigweed [7, 21] | Plant response rating, Ragweed [8, 21] | Plant response rating, Foxtail, Giant [9, 21] | Plant response rating, Wheat [10, 21] | Plant response rating, Ryegrass, Italian [11] | Plant response rating, Barnyardgrass [12] | Plant response rating, Kochia [13] | Plant response rating, Pigweed [14] | Plant response rating, Ragweed [15] | Plant response rating, Foxtail, Giant [16] | further results
1 | Cc1ccc(C2CNC(=O)C2C(=O)Nc2cccc(F)c2F)cc1F (racemic) [Compound 369] | 70 | 30 | 50 | 20 | 70 | 60 | 90 | 90 | 50 | 60 | 0 | 30 | 80 | 60 | 0 | 90 | 50 | 0 | 60 | 90 | Plant response rating, Corn [5, 22]: 0; Plant response rating, Kochia [6, 22]: 20; Plant response rating, Pigweed [7, 22]: 0; Plant response rating, Ragweed [8, 22]: 0; Plant response rating, Foxtail, Giant [9, 22]: 20; Plant response rating, Wheat [10, 22]: 0; Ryegrass, Italian plant response rating (0 to 100 scale) ([11]; Preemergence, 500 g ai/ha): 20; Barnyardgrass plant response rating (0 to 100 scale) ([12]; Preemergence, 500 g ai/ha): 90; Kochia plant response rating (0 to 100 scale) ([13]; Preemergence, 500 g ai/ha): 40; Pigweed plant response rating (0 to 100 scale) ([14]; Preemergence, 500 g ai/ha): 0; Ragweed plant response rating (0 to 100 scale) ([15]; Preemergence, 500 g ai/ha): 60; Foxtail, Giant plant response rating (0 to 100 scale) ([16]; Preemergence, 500 g ai/ha): 90; Plant response rating, Rice ([17]; 250 g ai/ha): 0; Plant response rating, Barnyardgrass ([18]; 250 g ai/ha): 20; Plant response rating, Ducksalad ([19]; 250 g ai/ha): 100; Plant response rating, Sedge, Umbrella ([20]; 250 g ai/ha): 0
2 | Cc1ccc(F)c(NC(=O)C2C(=O)NCC2c2cccc(OC(F)F)c2)c1 (stereo not drawn) [Compound 423] | 0 |  | 0 |  | 0 |  | 0 |  | 0 | 0 | 0 | 0 | 0 | 0 | 0 | 0 | 0 | 0 | 0 | 0 | Blackgrass plant response rating [1, 23]: 0; Ryegrass, Italian plant response rating [2, 23]: 0; Galium plant response rating [3, 23]: 0; Barnyardgrass plant response rating [4, 23]: 0; Corn plant response rating [5, 23]: 0; Kochia plant response rating [6, 23]: 0; Pigweed plant response rating [7, 23]: 0; Ragweed plant response rating [8, 23]: 0; Foxtail, Giant plant response rating [9, 23]: 0; Wheat plant response rating [10, 23]: 0; Ryegrass, Italian plant response rating (0 to 100 scale, 0 is no effect, 100 is complete control) [11, 24]: 0; Barnyardgrass plant response rating (0 to 100 scale, 0 is no effect, 100 is complete control) [12, 24]: 0; Kochia plant response rating (0 to 100 scale, 0 is no effect, 100 is complete control) [13, 24]: 0; Pigweed plant response rating (0 to 100 scale, 0 is no effect, 100 is complete control) [14, 24]: 0; Ragweed plant response rating (0 to 100 scale, 0 is no effect, 100 is complete control) [15, 24]: 0; Foxtail, Giant plant response rating (0 to 100 scale, 0 is no effect, 100 is complete control) [16, 24]: 0; Plant response rating, Rice ([17]; 500 g ai/ha): 0; Plant response rating, Barnyardgrass ([18]; 500 g ai/ha): 0; Plant response rating, Ducksalad ([19]; 500 g ai/ha): 20; Plant response rating, Sedge, Umbrella ([20]; 500 g ai/ha): 0
3 | Cc1ccc(C2CNC(=O)C2C(=O)Nc2ccccc2F)cc1F (racemic) [Compound 368] | 60 | 0 | 50 | 20 | 50 | 30 | 90 | 90 | 20 | 0 | 0 | 30 | 80 | 30 | 0 | 90 | 0 | 0 | 30 | 90 | Plant response rating, Corn [5, 22]: 0; Plant response rating, Kochia [6, 22]: 0; Plant response rating, Pigweed [7, 22]: 0; Plant response rating, Ragweed [8, 22]: 0; Plant response rating, Foxtail, Giant [9, 22]: 20; Plant response rating, Wheat [10, 22]: 0; Ryegrass, Italian plant response rating (0 to 100 scale) ([11]; Preemergence, 500 g ai/ha): 30; Barnyardgrass plant response rating (0 to 100 scale) ([12]; Preemergence, 500 g ai/ha): 90; Kochia plant response rating (0 to 100 scale) ([13]; Preemergence, 500 g ai/ha): 30; Pigweed plant response rating (0 to 100 scale) ([14]; Preemergence, 500 g ai/ha): 0; Ragweed plant response rating (0 to 100 scale) ([15]; Preemergence, 500 g ai/ha): 60; Foxtail, Giant plant response rating (0 to 100 scale) ([16]; Preemergence, 500 g ai/ha): 90; Plant response rating, Rice ([17]; 250 g ai/ha): 15; Plant response rating, Barnyardgrass ([18]; 250 g ai/ha): 55; Plant response rating, Ducksalad ([19]; 250 g ai/ha): 100; Plant response rating, Sedge, Umbrella ([20]; 250 g ai/ha): 0
